From patent US20250084078A1, “FUSED RING-SUBSTITUTED SIX-MEMBERED HETEROCYCLIC COMPOUND, AND PREPARATION METHOD THEREFOR AND USE THEREOF” (GENFLEFT THERAPEUTICS (SHANGHAI) INC., priority 2022, published 2025)

How the values were obtained:
[1] = target: T1, HPK1 (Homo sapiens, UniProt Q92918); assay: HPK1 kinase activity assay (ADP-Glo); conditions: HPK1 Kinase activity IC50, ADP-Glo; 1 nM HPK1, 10 μM ATP, 0.1 μg/μL MBP
T1 sequence (Q92918 1-346): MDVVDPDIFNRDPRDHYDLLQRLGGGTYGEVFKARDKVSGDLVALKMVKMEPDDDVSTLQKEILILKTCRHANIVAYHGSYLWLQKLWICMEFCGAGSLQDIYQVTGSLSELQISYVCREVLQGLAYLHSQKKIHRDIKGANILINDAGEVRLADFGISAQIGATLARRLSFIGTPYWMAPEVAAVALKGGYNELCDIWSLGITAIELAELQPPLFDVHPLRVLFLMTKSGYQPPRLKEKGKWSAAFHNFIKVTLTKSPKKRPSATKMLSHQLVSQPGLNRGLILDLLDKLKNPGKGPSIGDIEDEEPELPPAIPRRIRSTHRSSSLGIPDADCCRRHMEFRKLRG
Description: Preparation of buffer: Ix reaction buffer (40 mM Tris-HCl, 20 mM MgCl2, 0.01% Brij35, 50 μM DTT, 0.1 mg/ml BSA) was prepared using sterile water, which was prepared and used on the day of the experiment.
Preparation of 1000× drug stock plate: a 1000× compound stock plate was prepared. […] The compound stock plate was sealed with a sealing film and stored in a −20° C. refrigerator for later use.
Compound preparation and dosing: the 1000× drug stock plate was taken and melted at room temperature in the dark. Then 5× drug intermediate plate was prepared using reaction buffer and mixed well. 2 μL was transferred from the 5× drug intermediate plate into a 384-well plate, and negative control well and positive control well (in which 2 μL reaction buffer containing 0.5% DMSO was added) were set. Each point was repeated twice.
Preparation and incubation of reaction mixture: HPK1 protein was diluted to a 2.5× working solution with reaction buffer. 4 μL 2.5×HPK1 protein was added to each well containing test compound and positive control well, and 4 μL of reaction buffer without HPK1 protein was added to the negative control well. The obtained mixture was centrifuged at 1000 rpm for 1 min and then incubated in a 20° C. incubator for 15 min. A 2.5× mixed working solution of MBP protein and ATP was prepared with reaction buffer at concentrations of 0.5 μg/μL and 50 μM, respectively. 4 μL of the mixed working solution of MBP and ATP was added to each well, centrifuged at 1000 rpm for 1 min, and then incubated in a 20° C. incubator for 90 min.
ADP-Glo detection and reading plate: 10 μl ADP-Glo was added to each well of the test plate. The resulting mixture was centrifuged at 1000 rpm for 1 min and incubated in a 20° C. incubator for 60 min. Then 10 μL of the final incubation solution was transferred from the test plate to a new 384-well plate. 10 μL of kinase detection reagent was added to each well, centrifuged at 400 g for 1 min, and incubated in a 20° C. incubator for 60 min Chemiluminescent signals were read by a microplate reader.

[2] = target: HPK1 (Homo sapiens, UniProt Q92918); assay: SLP76 phosphorylation assay (intracellular HPK1 inhibitory activity, p-SLP76 S376 ELISA in Jurkat cells); conditions: p-SLP76 IC50, Jurkat, Clone E6-1 cells; 1 h compound pre-incubation; anti-CD3 beads stimulation 20 min; Phospho-SLP-76 (Ser376) ELISA
Target sequence in this assay (Q92918 whole entry): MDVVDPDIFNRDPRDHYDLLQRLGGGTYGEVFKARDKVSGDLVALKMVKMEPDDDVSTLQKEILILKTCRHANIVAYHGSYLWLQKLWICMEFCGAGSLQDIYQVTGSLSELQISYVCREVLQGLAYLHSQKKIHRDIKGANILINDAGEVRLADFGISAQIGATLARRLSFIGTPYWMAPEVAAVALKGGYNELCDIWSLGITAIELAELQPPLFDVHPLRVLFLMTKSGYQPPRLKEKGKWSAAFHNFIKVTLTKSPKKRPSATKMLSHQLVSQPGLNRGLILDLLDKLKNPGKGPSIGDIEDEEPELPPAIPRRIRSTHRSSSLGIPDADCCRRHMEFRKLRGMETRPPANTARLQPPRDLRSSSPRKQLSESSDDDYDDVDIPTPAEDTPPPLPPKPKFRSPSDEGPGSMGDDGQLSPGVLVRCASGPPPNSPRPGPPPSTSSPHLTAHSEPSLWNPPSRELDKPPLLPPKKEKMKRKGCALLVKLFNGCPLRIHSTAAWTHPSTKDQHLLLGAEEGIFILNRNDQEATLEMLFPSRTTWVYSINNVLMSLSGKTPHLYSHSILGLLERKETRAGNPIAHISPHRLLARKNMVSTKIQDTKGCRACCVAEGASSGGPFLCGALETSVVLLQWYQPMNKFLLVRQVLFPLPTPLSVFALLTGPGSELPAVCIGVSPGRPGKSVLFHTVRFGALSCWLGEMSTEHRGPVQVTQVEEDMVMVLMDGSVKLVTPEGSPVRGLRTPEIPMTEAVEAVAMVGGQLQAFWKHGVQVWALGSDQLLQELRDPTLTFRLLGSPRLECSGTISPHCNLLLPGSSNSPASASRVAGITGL

Row | Structure (SMILES) | IC50 [1] | IC50 [2]
1 | CCc1c[nH]c2ncc(-c3cc4c(c([C@@H]5COCCN5)c3)CN(C(=O)N3CCOCC3)CC4)nc12 [Compound Z528, (R)-(6-(7-ethyl-5H-pyrrolo[2,3-b]pyrazin-2-yl)-8-(morpholin-3-yl)-3,4-dihydroisoquinolin-2(1H)-yl)(morpholino)methanone] | 0.16 nM | 42.4 nM
2 | CC(C)c1c[nH]c2ncc(-c3cc4c(c([C@@H]5COCCN5)c3)CN(C(=O)C(C)(C)O)CC4)nc12 [Compound Z541, (R)-2-hydroxy-1-(6-(7-isopropyl-5H-pyrrolo[2,3-b]pyrazin-2-yl)-8-(morpholin-3-yl)-3,4-dihydroisoquinolin-2(1H)-yl)-2-methylpropan-1-one] | 0.16 nM | 33.7 nM
3 | O=C(N1CCc2cc(-c3cnc4[nH]cc(C(F)(F)F)c4c3)cc([C@@H]3COCCN3)c2C1)N1CC2CCC(C1)O2 [Compound Z544, (8-oxa-3-azabicyclo[3.2.1]octan-3-yl)(8-((R)-morpholin-3-yl)-6-(3-(trifluoromethyl)-1H-pyrrolo[2,3-b]pyridin-5-yl)-3,4-dihydroisoquinolin-2(1H)-yl)methanone] | 0.12 nM | 50.1 nM
4 | O=C(N1CCc2cc(-c3cnc4[nH]cc(Cl)c4n3)cc([C@@H]3COCCN3)c2C1)N1CC2CCC(C1)O2 [Compound Z549, (8-oxa-3-azabicyclo[3.2.1]octan-3-yl)(6-(7-chloro-5H-pyrrolo[2,3-b]pyrazin-2-yl)-8-((R)-morpholin-3-yl)-3,4-dihydroisoquinolin-2(1H)-yl)methanone] | 0.11 nM | 66.3 nM
5 | Cc1c[nH]c2ncc(-c3cc4c(c([C@@H]5COCCN5)c3)CN(C(=O)N3C[C@@H](C)O[C@H](C)C3)CC4)cc12 [Compound Z552, ((2R,6R)-2,6-dimethylmorpholine)(6-(3-methyl-1H-pyrrolo[2,3-b]pyridin-5-yl)-8-((R)-morpholin-3-yl)-3,4-dihydroisoquinolin-2(1H)-yl)methanone] | 0.22 nM | 105 nM
6 | Cc1c[nH]c2ncc(-c3cc4c(c([C@@H]5COCCN5)c3)CN(C(=O)N3CCC(F)CC3)CC4)nc12 [Compound Z566, (R)-(4-fluoropiperidin-1-yl)(6-(7-methyl-5H-pyrrolo[2,3-b]pyrazin-2-yl)-8-(morpholin-3-yl)-3,4-dihydroisoquinolin-2(1H)-yl)methanone] | 0.24 nM | 81.8 nM
7 | Cc1c[nH]c2ncc(-c3cc4c(c([C@@H]5COCCN5)c3)CN(C(=O)[C@](C)(O)C(F)(F)F)CC4)nc12 [Compound Z568, (S)-3,3,3-trifluoro-2-hydroxy-2-methyl-1-(6-(7-methyl-5H-pyrrolo[2,3-b]pyrazin-2-yl)-8-((R)-morpholin-3-yl)-3,4-dihydroisoquinolin-2(1H)-yl)propan-1-one] | 0.33 nM | 66.2 nM
8 | Cc1c[nH]c2ncc(-c3cc4c(c([C@@H]5COCCN5)c3)CN(C(=O)N3C5CCC3COC5)CC4)nc12 [Compound Z570, (3-oxa-8-azabicyclo[3.2.1]octan-8-yl)(6-(7-methyl-5H-pyrrolo[2,3-b]pyrazin-2-yl)-8-((R)-morpholin-3-yl)-3,4-dihydroisoquinolin-2(1H)-yl)methanone] | 0.13 nM | 31.9 nM
9 | O=C(N1CCc2cc(-c3cnc4[nH]cc(Cl)c4n3)cc([C@@H]3COCCN3)c2C1)N1C2CCC1COC2 [Compound Z571, (3-oxa-8-azabicyclo[3.2.1]octan-8-yl)(6-(7-chloro-5H-pyrrolo[2,3-b]pyrazin-2-yl)-8-((R)-morpholin-3-yl)-3,4-dihydroisoquinolin-2(1H)-yl)methanone] | 0.49 nM | 108 nM
10 | Cc1c[nH]c2ncc(-c3cc4c(c([C@@H]5COCCN5)c3)CN(C(=O)N3CC5CCC(C3)O5)CC4)nc12 [Compound Z572, (8-oxa-3-50 azabicyclo[3.2.1]octan-3-yl)(6-(7-methyl-5H-pyrrolo[2,3-b]pyrazin-2-yl)-8-((R)-morpholin-3-yl)-3,4-dihydroisoquinolin-2(1H)-yl)methanone] | 0.16 nM | 28 nM
11 | Cc1c[nH]c2ncc(-c3cc4c(c([C@@H]5COCCN5)c3)CN(C(=O)N3CCOC[C@@H]3C)CC4)nc12 [Compound Z574, (6-(7-methyl-5H-pyrrolo[2,3-b]pyrazin-2-yl)-8-((R)-morpholin-3-yl)-3,4-dihydroisoquinolin-2(1H)-yl)((S)-3-methylmorpholine)methanone] | 0.41 nM | 83.9 nM
12 | Cc1c[nH]c2ncc(-c3cc4c(c([C@@H]5COCCN5)c3)CN(C(=O)N3CC(O)CC3(C)C)CC4)cc12 (stereo partly drawn) [Compound Z577] | 0.25 nM | 78.1 nM
13 | Cc1c[nH]c2ncc(-c3cc4c(c([C@@H]5COCCN5)c3)CN(C(=O)N3CCOC[C@@H]3C)CC4)cc12 [Compound Z581, (6-(3-methyl-1H-pyrrolo[2,3-b]pyridin-5-yl)-8-((R)-morpholin-3-yl)-3,4-dihydroisoquinolin-2(1H)-yl)((S)-3-methylmorpholino)methanone] | 0.24 nM | 86.7 nM
14 | Cc1c[nH]c2ncc(-c3cc4c(c([C@@H]5COCCN5)c3)CN(C(=O)N3CCC(F)CC3)CC4)cc12 [Compound Z585, (R)-(4-fluoropiperidin-1-yl)(6-(3-methyl-1H-pyrrolo[2,3-b]pyridin-5-yl)-8-(morpholin-3-yl)-3,4-dihydroisoquinolin-2(1H)-yl)methanone] | 0.25 nM | 83.2 nM
15 | Cc1c[nH]c2ncc(-c3cc4c(c([C@@H]5COCCN5)c3)CN(C(=O)N3C[C@@H](C)O[C@H](C)C3)CC4)nc12 [Compound Z600] | 0.08 nM | 103 nM
16 | Cc1c[nH]c2ncc(-c3cc4c(c([C@@H]5COCCN5)c3)CN(C(=O)N3CC[C@H](F)C3)CC4)nc12 [Compound Z603, ((S)-3-fluoropyrrolidin-1-yl)(6-(7-methyl-5H-pyrrolo[2,3-b]pyrazin-2-yl)-8-((R)-morpholin-3-yl)-3,4-dihydroisoquinolin-2(1H)-yl)methanone] | 0.21 nM | 67.4 nM
17 | O=C(N1CCc2cc(-c3cnc4[nH]cc(Cl)c4c3)cc([C@@H]3COCCN3)c2C1)N1CC[C@H](F)C1 [Compound Z604, (6-(3-chloro-1H-pyrrolo[2,3-b]pyridin-5-yl)-8-((R)-morpholin-3-yl)-3,4-dihydroisoquinolin-2(1H)-yl)((S)-3-fluoropyrrolidin-1-yl)methanone] | 0.36 nM | 108 nM
18 | O=C(N1CCc2cc(-c3cnc4[nH]cc(C(F)(F)F)c4n3)cc([C@@H]3COCCN3)c2C1)N1CC2CCC(C1)O2 [Compound Z606, (8-oxa-3-azabicyclo[3.2.1]octan-3-yl)(8-((R)-morpholin-3-yl)6-(7-(trifluoromethyl)-5H-pyrrolo[2,3-b]pyrazin-2-yl)-3,4-dihydroisoquinolin-2(1H)-yl)methanone] | 0.25 nM | 62.9 nM
19 | Cc1c[nH]c2ncc(-c3cc4c(c([C@@H]5COCCN5)c3)CN(C(=O)N3C[C@H]5C[C@@H]3CO5)CC4)nc12 [Compound Z607, ((1R,4R)-2-oxa-5-azabicyclo[2.2.1]heptan-5-yl)(6-(7-methyl-5H-pyrrolo[2,3-b]pyrazin-2-yl)-8-((R)-morpholin-3-yl)-3,4-dihydroisoquinolin-2(1H)-yl)methanone] | 0.27 nM | 76.1 nM
20 | O=C(N1CCc2cc(-c3cnc4[nH]cc(Cl)c4c3)cc([C@@H]3COCCN3)c2C1)N1C[C@H]2C[C@@H]1CO2 [Compound Z608, ((1R,4R)-2-oxa-5-azabicyclo[2.2.1]heptan-5-yl)(6-(3-chloro-1H-pyrrolo[2,3-b]pyridin-5-yl)-8-((R)-morpholin-3-yl)-3,4-dihydroisoquinolin-2(1H)-yl)methanone] | 0.27 nM | 67.1 nM
21 | O=C(N1CCc2cc(-c3cnc4[nH]cc(C(F)(F)F)c4c3)cc([C@@H]3COCCN3)c2C1)N1C2CCC1COC2 [Compound Z611] | 0.37 nM | 98.9 nM
22 | Cc1c[nH]c2ncc(-c3cc4c(c([C@@H]5COCCN5)c3)CN(C(=O)C3(C)CCOCC3)CC4)cc12 [Compound Z615, (R)-(6-(3-methyl-1H-pyrrolo[2,3-b]pyridin-5-yl)-8-(morpholin-3-yl)-3,4-dihydroisoquinolin-2(1H)-yl)(4-methyltetrahydro-2H-pyran-4-yl)methanone] | 0.76 nM | 207 nM
23 | CC1(C)CC(O)CN1C(=O)N1CCc2cc(-c3cnc4[nH]cc(Cl)c4c3)cc([C@@H]3COCCN3)c2C1 (stereo partly drawn) [Compound Z617, (6-(3-chloro-1H-pyrrolo[2,3-b]pyridin-5-yl)-8-((R)-morpholin-3-yl)-3,4-dihydroisoquinolin-2(1H)-yl)(4-hydroxy-2,2-dimethylpyrrolidin-1-yl)methanone] | 0.36 nM | 86.2 nM
24 | Cc1c[nH]c2ncc(-c3cc4c(c([C@@H]5COCCN5)c3)CN(C(=O)N3CCC(F)(F)CC3)CC4)nc12 [Compound Z624, (R)-(4,4-difluoropiperidin-1-yl)(6-(7-methyl-5H-pyrrolo[2,3-b]pyrazin-2-yl)-8-(morpholin-3-yl)-3,4-dihydroisoquinolin-2(1H)-yl)methanone] | 0.36 nM | 76 nM
